According to ChEMBL document CHEMBL1201862, “PubChem BioAssay data set” (2004):
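These data come from cells grown in 96-well plates and exposed to compound for 48 hours at five concentrations. GI50 marks 50% less growth.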 Calls of active or inactive are those of the source. No stated cut-off is given here; in the data, active = GI50 up to about 1.1 µM and inactive = higher.

Tests used:
Assay in all cases: NCI-60 cell line screen, 48 h
[1] = system: COLO 205
[2] = system: HOP-62
[3] = system: A498
[4] = system: SF-295
[5] = system: NCI-H522
[6] = system: RPMI-8226
[7] = system: DMS-273
[8] = system: EKVX
[9] = system: SN12C
[10] = system: SK-MEL-5
[11] = system: M14
[12] = system: M19-MEL
[13] = system: ACHN
[14] = system: SK-MEL-2
[15] = system: U-251
[16] = system: KM12
[17] = system: DLD-1
[18] = system: UACC-62
[19] = system: SK-MEL-28
[20] = system: LXFL 529
[21] = system: LOX IMVI
[22] = system: UACC-257
[23] = system: HCC 2998
[24] = system: 786-0
[25] = system: UO-31
[26] = system: XF498
[27] = system: HCT-116
[28] = system: A549
[29] = system: Malme-3M
[30] = system: HCT-15
[31] = system: K562
[32] = system: NCI-H460
[33] = system: NCI-H226
[34] = system: OVCAR-3
[35] = system: HL-60
[36] = system: CCRF-CEM
[37] = system: SK-OV-3
[38] = system: SF-539
[39] = system: NCI-H23
[40] = system: IGROV-1
[41] = system: MOLT-4
[42] = system: OVCAR-8
[43] = system: DMS-114
[44] = system: CAKI-1
[45] = system: SW-620
[46] = system: SNB-19
[47] = system: OVCAR-4
[48] = system: HT-29
[49] = system: SF-268
[50] = system: HOP-92
[51] = system: OVCAR-5
[52] = system: SNB-78
[53] = system: KM-20L2
[54] = system: RXF 393
[55] = system: SNB-75
[56] = system: TK-10
[57] = system: SR

For `CCOC(=O)CC[C@H](NC(=O)c1nc[nH]c1/N=N/N(C)C)C(=O)OCC`, the GI50 [1] was > 100 µM (inactive), the GI50 [2] was > 100 µM (inactive) and the GI50 [3] was > 100 µM (inactive). The GI50 [4] was > 100 µM (inactive), the GI50 [5] was > 100 µM (inactive) and the GI50 [6] was > 100 µM (inactive). The GI50 [7] was > 100 µM (inactive), the GI50 [8] was > 100 µM (inactive) and the GI50 [9] was > 100 µM (inactive). For the same compound, the GI50 [10] was > 100 µM (inactive), the GI50 [11] was > 100 µM (inactive) and the GI50 [12] was > 100 µM (inactive). For the same compound, the GI50 [13] was > 100 µM (inactive), the GI50 [14] was > 100 µM (inactive) and the GI50 [15] was > 100 µM (inactive). For the same compound, the GI50 [16] was > 100 µM (inactive), the GI50 [17] was > 100 µM (inactive) and the GI50 [18] was > 100 µM (inactive). The GI50 [19] was > 100 µM (inactive), the GI50 [20] was > 100 µM (inactive) and the GI50 [21] was > 100 µM (inactive). The GI50 [22] was > 100 µM (inactive), the GI50 [23] was > 100 µM (inactive) and the GI50 [24] was > 100 µM (inactive). For the same compound, the GI50 [25] was > 100 µM (inactive), the GI50 [26] was 15.3 µM (inactive) and the GI50 [27] was > 100 µM (inactive). For the same compound, the GI50 [28] was > 100 µM (inactive), the GI50 [29] was > 100 µM (inactive) and the GI50 [30] was greater than 100 µM. The GI50 [31] was > 100 µM (inactive), the GI50 [32] was > 100 µM (inactive) and the GI50 [33] was > 100 µM (inactive). The GI50 [34] was > 100 µM (inactive), the GI50 [35] was > 100 µM (inactive) and the GI50 [36] was > 100 µM (inactive). For the same compound, the GI50 [37] was > 100 µM (inactive), the GI50 [38] was > 100 µM (inactive) and the GI50 [39] was > 100 µM (inactive). The GI50 [40] was > 100 µM (inactive), the GI50 [41] was > 100 µM (inactive) and the GI50 [42] was > 100 µM (inactive). The GI50 [43] was > 100 µM (inactive), the GI50 [44] was > 100 µM (inactive) and the GI50 [45] was > 100 µM (inactive). The GI50 [46] was > 100 µM (inactive), the GI50 [47] was > 100 µM (inactive) and the GI50 [48] was > 100 µM (inactive). For the same compound, the GI50 [49] was > 100 µM (inactive).

`CCOc1ccc(-c2oc(/C=N/NS(=O)(=O)c3ccc(C)cc3)c([N+](=O)[O-])c2-c2ccc(OCC)cc2)cc1` was tested, and the GI50 [1] was 17.5 µM (inactive), the GI50 [2] was 21.3 µM (inactive) and the GI50 [3] was 14.9 µM (inactive). The GI50 [4] was 14.4 µM (inactive), the GI50 [5] was 5.96 µM (inactive) and the GI50 [50] was 8.85 µM (inactive). For the same compound, the GI50 [6] was 2.58 µM (inactive), the GI50 [7] was 8.41 µM (inactive) and the GI50 [8] was 26.1 µM (inactive). The GI50 [9] was 12.8 µM (inactive), the GI50 [10] was 6.76 µM (inactive) and the GI50 [11] was 12.4 µM (inactive). The GI50 [12] was 3.72 µM (inactive), the GI50 [13] was 10.9 µM (inactive) and the GI50 [51] was 11.5 µM (inactive). The GI50 [14] was 19.9 µM (inactive), the GI50 [15] was 8.22 µM (inactive) and the GI50 [52] was 9.73 µM (inactive). For the same compound, the GI50 [16] was 8.81 µM (inactive), the GI50 [17] was 4.98 µM (inactive) and the GI50 [18] was 7.11 µM (inactive). The GI50 [19] was 12.4 µM (inactive), the GI50 [20] was 9.93 µM (inactive) and the GI50 [21] was 3.46 µM (inactive). The GI50 [22] was 16 µM (inactive), the GI50 [23] was 14.4 µM (inactive) and the GI50 [24] was 12.4 µM (inactive). The GI50 [53] was 11.2 µM (inactive), the GI50 [25] was 12.7 µM (inactive) and the GI50 [27] was 2.03 µM (inactive). The GI50 [28] was 19.4 µM (inactive), the GI50 [29] was 19.1 µM (inactive) and the GI50 [30] was 5.65 µM. The GI50 [31] was 3.79 µM (inactive), the GI50 [32] was 13.2 µM (inactive) and the GI50 [33] was 14.4 µM (inactive). The GI50 [34] was 15.6 µM (inactive), the GI50 [35] was 4.03 µM (inactive) and the GI50 [36] was 2.54 µM (inactive). For the same compound, the GI50 [37] was 15.4 µM (inactive), the GI50 [38] was 16.1 µM (inactive) and the GI50 [39] was 13.5 µM (inactive). The GI50 [40] was 14.1 µM (inactive), the GI50 [41] was 2.65 µM (inactive) and the GI50 [42] was 15.6 µM (inactive). The GI50 [43] was 3.21 µM (inactive), the GI50 [54] was 12.3 µM (inactive) and the GI50 [44] was 10.3 µM (inactive). The GI50 [55] was 4.19 µM (inactive), the GI50 [56] was 22 µM (inactive) and the GI50 [45] was 2.61 µM (inactive). The GI50 [46] was 15 µM (inactive), the GI50 [47] was 11.3 µM (inactive) and the GI50 [48] was 5.19 µM (inactive). For the same compound, the GI50 [49] was 17.9 µM (inactive).

`O=C1c2ccccc2C(=O)c2c1ccc(O)c2O` [ATHRAQUINONES A] was tested, and the GI50 [1] was 34.5 µM (inactive), the GI50 [2] was > 100 µM (inactive) and the GI50 [3] was 39.5 µM (inactive). The GI50 [4] was 57.3 µM (inactive), the GI50 [5] was 39.4 µM (inactive) and the GI50 [50] was 38.6 µM (inactive). For the same compound, the GI50 [6] was 36.5 µM (inactive), the GI50 [7] was 35.9 µM (inactive) and the GI50 [8] was 26.9 µM (inactive). The GI50 [9] was 42.3 µM (inactive), the GI50 [11] was 77.6 µM (inactive) and the GI50 [12] was 72.4 µM (inactive). The GI50 [13] was 34.8 µM (inactive), the GI50 [51] was > 100 µM (inactive) and the GI50 [14] was 43 µM (inactive). For the same compound, the GI50 [15] was 38.6 µM (inactive), the GI50 [16] was 57.8 µM (inactive) and the GI50 [17] was 43.4 µM (inactive). The GI50 [18] was 25.4 µM (inactive), the GI50 [57] was 34.8 µM (inactive) and the GI50 [19] was > 100 µM (inactive). For the same compound, the GI50 [20] was 43.2 µM (inactive), the GI50 [21] was 37.8 µM (inactive) and the GI50 [22] was 71.1 µM (inactive). For the same compound, the GI50 [23] was 33.1 µM (inactive), the GI50 [24] was 63 µM (inactive) and the GI50 [25] was 36.6 µM (inactive). The GI50 [26] was 39.1 µM (inactive), the GI50 [27] was 32.4 µM (inactive) and the GI50 [28] was > 10 µM (inactive). For the same compound, the GI50 [30] was 37.1 µM, the GI50 [31] was 36.1 µM (inactive) and the GI50 [32] was 38.9 µM (inactive). The GI50 [33] was 94.8 µM (inactive), the GI50 [34] was 32.9 µM (inactive) and the GI50 [36] was 36.6 µM (inactive). For the same compound, the GI50 [38] was 42.6 µM (inactive), the GI50 [39] was 41.6 µM (inactive) and the GI50 [40] was 35.6 µM (inactive). The GI50 [41] was 32.4 µM (inactive), the GI50 [42] was 31.3 µM (inactive) and the GI50 [54] was 40.8 µM (inactive). The GI50 [44] was 39.5 µM (inactive), the GI50 [55] was 28.2 µM (inactive) and the GI50 [56] was > 100 µM (inactive). The GI50 [45] was 37.9 µM (inactive), the GI50 [46] was 61.2 µM (inactive) and the GI50 [47] was 32.1 µM (inactive). For the same compound, the GI50 [48] was 36 µM (inactive) and the GI50 [49] was 32 µM (inactive).
